# In patent US20230391772A1, “METHODS AND COMPOSITIONS FOR TARGETED PROTEIN DEGRADATION” (Ranok Therapeutics (Hangzhou) Co. Ltd., priority 2020, published 2023):
# How the values were obtained:
# [1] = molecular target: T1, HSP90a protein (Homo sapiens, UniProt P07900); experiment: HSP90α-binding fluorescent polarization (FP) assay, BODIPY-labeled RNK04010 probe; conditions: FP competition with RNK04010 (BODIPY-labeled), 5 nM, 300 min at 25° C.
# T1 construct: purchased BPS Bioscience 50298
# In short: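 Compound dilutions (20 μM to 5.2 nM, 2.5-fold) are combined with 5 nM final labeled probe, and HSP90a N-terminal protein is added last. Plates are shaken briefly and held at 25° C for 120 min (FITC-geldanamycin) or 300 min (BODIPY-RNK04010), then FP is measured.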
# [2] = test system: NCI-H358 human non-small cell lung cancer; experiment: NCI-H358 CCK-8 proliferation assay; type: cell-based; conditions: NCI-H358 cells, 72 hr
# Protocol: The following cancer cell lines were employed: BT-474 human breast carcinoma (ATCC, #HTB-20); MIA PaCa-2 human pancreatic carcinoma [2 copies KRAS(G12C)](ATCC, #CRL-1420); NCI-H23 human non-small cell lung cancer [1 copy KRAS(G12C)](ATCC, #CRL-5800); NCI-H358 human non-small cell lung cancer [1 copy KRAS(G12C)](ATCC, #CRL-5807); LU65A human lung carcinoma (Pharmaron, Beijing, China). Cell lines were cultured essentially according to ATCC and Pharmaron recommendations.
# Cancer Cell Line Proliferation (CCK-8) Assays
# 3-fold serial dilutions of each test compound were prepared ranging from 20 μM to 1.02 nM.
# % Inhibition=100−(D−B)/(S−B)*100%. • S: Absorbance of cells treated with DMSO • D: Absorbance of compound-treated cells • B: Absorbance of medium with DMSO without cells
SMILES,IC50 [1] [nM],EC50 [2] [nM]
"C=C(F)C(=O)N1CCN(c2nc(OC[C@@H]3CCN(C(=O)c4ccc(Nc5cc(-n6nc(C(F)(F)F)c7c6CC(C)(C)CC7=O)ccc5C(N)=O)cc4)C3)nc3c2CCN(c2cccc4cccc(Cl)c24)C3)C[C@@H]1CC#N [Compound 163, 2-((4-((R)-3-(((7-(8-chloronaphthalen-1-yl)-4-((S)-3-(cyanomethyl)-4-(2-fluoroacryloyl)piperazin-1-yl)-5,6,7,8-tetrahydropyrido[3,4-d]pyrimidin-2-yl)oxy)methyl)pyrrolidine-1-carbonyl)phenyl)amino)-4-(6,6-dimethyl-4-oxo-3-(trifluoromethyl)-4,5,6,7-tetrahydro-1H-indazol-1-yl)benzamide]",> 1000,> 1000
"CCC(=O)N1CCN(c2nc(NCCC(=O)NCc3ccc(-n4c(O)nnc4-c4cc(C(C)C)c(O)cc4O)cc3)nc3c2CCN(c2cc(O)cc4ccccc24)C3)CC1 [Compound 50, N-(4-(3-(2,4-dihydroxy-5-isopropylphenyl)-5-hydroxy-4H-1,2,4-triazol-4-yl)benzyl)-3-((7-(3-hydroxynaphthalen-1-yl)-4-(4-propionylpiperazin-1-yl)-5,6,7,8-tetrahydropyrido[3,4-d]pyrimidin-2-yl)amino)propanamide, trifluoroacetic acid]",100 to 1000,> 1000
"CC(=O)N1CCN(c2nc(NCCC(=O)N3CCN(Cc4ccc(CN(C)Cc5ccc(-n6c(C(=O)NCC(F)(F)F)nnc6-c6cc(C(C)C)c(O)cc6O)cc5)cc4)CC3)nc3c2CCN(c2cccc4ccccc24)C3)C[C@H]1CC#N [Compound 124, (R)-4-(4-(((4-((4-(3-((4-(4-acetyl-3-(cyanomethyl)piperazin-1-yl)-7-(naphthalen-1-yl)-5,6,7,8-tetrahydropyrido[3,4-d]pyrimidin-2-yl)amino)propanoyl)piperazin-1-yl)methyl)benzyl)(methyl)amino)methyl)phenyl)-5-(2,4-dihydroxy-5-isopropylphenyl)-N-(2,2,2-trifluoroethyl)-4H-1,2,4-triazole-3-carboxamide, trifluoroacetic acid]",100 to 1000,100 to 1000
"C=CC(=O)N1CCN(c2nc(NCCC(=O)N3CCN(Cc4ccc5c(c4)CN(C(=O)c4cc(C(C)C)c(O)cc4O)C5)CC3)nc3c2CCN(c2cc(O)cc4ccccc24)C3)CC1 [Compound 58, 1-(4-(2-((3-(4-((2-(2,4-dihydroxy-5-isopropylbenzoyl)isoindolin-5-yl)methyl)piperazin-1-yl)-3-oxopropyl)amino)-7-(3-hydroxynaphthalen-1-yl)-5,6,7,8-tetrahydropyrido[3,4-d]pyrimidin-4-yl)piperazin-1-yl)prop-2-en-1-one]",100 to 1000,> 1000
"C=CC(=O)N1CCN(c2nc(NCCC(=O)NCc3ccc(-n4c(O)nnc4-c4cc(CCC)c(O)cc4O)cc3)nc3c2CCN(c2cccc4cccc(Cl)c24)C3)C[C@H]1CC#N [Compound 89, (R)-3-((4-(4-acryloyl-3-(cyanomethyl)piperazin-1-yl)-7-(8-chloronaphthalen-1-yl)-5,6,7,8-tetrahydropyrido[3,4-d]pyrimidin-2-yl)amino)-N-(4-(3-(2,4-dihydroxy-5-propylphenyl)-5-hydroxy-4H-1,2,4-triazol-4-yl)benzyl)propenamide]",> 1000,> 1000
"CCCc1cc(-c2nnc(O)n2-c2ccc(CNC(=O)CCNc3nc4c(c(N5CCN(C(=O)CC)CC5)n3)CCN(c3cc(O)cc5ccccc35)C4)cc2)c(O)cc1O [Compound 32, N-(4-(3-(2,4-dihydroxy-5-propylphenyl)-5-hydroxy-4H-1,2,4-triazol-4-yl)benzyl)-3-((7-(3-hydroxynaphthalen-1-yl)-4-(4-propionylpiperazin-1-yl)-5,6,7,8-tetrahydropyrido[3,4-d]pyrimidin-2-yl)amino)propanamide, trifluoroacetic acid]",> 1000,> 1000
"CCc1cc(-c2nnc(O)n2-c2ccc(CNC(=O)CCNc3nc4c(c(N5CCN(C(C)=O)CC5)n3)CCN(c3cc(O)cc5ccccc35)C4)cc2)c(O)cc1O [Compound 48, 3-((4-(4-acetylpiperazin-1-yl)-7-(3-hydroxynaphthalen-1-yl)-5,6,7,8-tetrahydropyrido[3,4-d]pyrimidin-2-yl)amino)-N-(4-(3-(5-ethyl-2,4-dihydroxyphenyl)-5-hydroxy-4H-1,2,4-triazol-4-yl)benzyl)propanamide, trifluoroacetic acid]",100 to 1000,> 1000

# Results, then the compound that gave them:
IC50 [1] [nM],EC50 [2] [nM],SMILES
100 to 1000,> 1000,"C=CC(=O)N1CCN(c2nc(NCCC(=O)N3CCN(c4ccc(-n5c(O)nnc5-c5cc(C(C)C)c(O)cc5O)cc4)CC3)nc3c2CCN(c2cccc4cccc(Cl)c24)C3)C[C@H]1CC#N [Compound 88, (R)-2-(1-acryloyl-4-(7-(8-chloronaphthalen-1-yl)-2-((3-(4-(4-(3-(2,4-dihydroxy-5-isopropylphenyl)-5-hydroxy-4H-1,2,4-triazol-4-yl)phenyl)piperazin-1-yl)-3-oxopropyl)amino)-5,6,7,8-tetrahydropyrido[3,4-d]pyrimidin-4-yl)piperazin-2-yl)acetonitrile, trifluoroacetic acid]"
100 to 1000,> 1000,"C=CC(=O)N1CCN(c2nc(NCCC(=O)NCc3ccc(-n4c(O)nnc4-c4cc(C(C)C)c(O)cc4O)cc3C(F)(F)F)nc3c2CCN(c2cc(O)cc4ccccc24)C3)CC1 [Compound 36, 3-((4-(4-acryloylpiperazin-1-yl)-7-(3-hydroxynaphthalen-1-yl)-5,6,7,8-tetrahydropyrido[3,4-d]pyrimidin-2-yl)amino)-N-(4-(3-(2,4-dihydroxy-5-isopropylphenyl)-5-hydroxy-4H-1,2,4-triazol-4-yl)-2-(trifluoromethyl)benzyl)propanamide, trifluoroacetic acid]"
100 to 1000,100 to 1000,"C=C(F)C(=O)N1CCN(c2nc(NCCC(=O)NCc3ccc(CN4CCC(Cc5ccc(-n6c(C(=O)NCC(F)(F)F)nnc6-c6cc(C(C)C)c(O)cc6O)cc5)CC4)cc3)nc3c2CCN(c2cc(O)cc4ccccc24)C3)CC1 [Compound 154, 5-(2,4-dihydroxy-5-isopropylphenyl)-4-(4-((1-(4-((3-((4-(4-(2-fluoroacryloyl)piperazin-1-yl)-7-(3-hydroxynaphthalen-1-yl)-5,6,7,8-tetrahydropyrido[3,4-d]pyrimidin-2-yl)amino)propanamido)methyl)benzyl)piperidin-4-yl)methyl)phenyl)-N-(2,2,2-trifluoroethyl)-4H-1,2,4-triazole-3-carboxamide]"
< 100,> 1000,"C=CC(=O)N1CCN(c2nc(NCCC(=O)NCC3CCN(C(=O)C4CCN(Cc5ccc(-n6c(O)nnc6-c6cc(CC)c(O)cc6O)cc5)CC4)CC3)nc3c2CCN(c2cccc4cccc(Cl)c24)C3)C[C@H]1CC#N [Compound 104, (R)-3-((4-(4-acryloyl-3-(cyanomethyl)piperazin-1-yl)-7-(8-chloronaphthalen-1-yl)-5,6,7,8-tetrahydropyrido[3,4-d]pyrimidin-2-yl)amino)-N-((1-(1-(4-(3-(5-ethyl-2,4-dihydroxyphenyl)-5-hydroxy-4H-1,2,4-triazol-4-yl)benzyl)piperidine-4-carbonyl)piperidin-4-yl)methyl)propanamide, trifluoroacetic acid]"
100 to 1000,> 1000,"C=CC(=O)N1CCN(c2nc(NCCC(=O)N3CCN(c4ccc(-n5c(O)nnc5-c5cc(C(C)C)c(O)cc5O)cc4)CC3)nc3c2CCN(c2cc(O)cc4ccccc24)C3)CC1 [Compound 2, 1-(4-(2-((3-(4-(4-(3-(2,4-dihydroxy-5-isopropylphenyl)-5-hydroxy-4H-1,2,4-triazol-4-yl)phenyl)piperazin-1-yl)-3-oxopropyl)amino)-7-(3-hydroxynaphthalen-1-yl)-5,6,7,8-tetrahydropyrido[3,4-d]pyrimidin-4-yl)piperazin-1-yl)prop-2-en-1-one, trifluoroacetic acid]"
100 to 1000,> 1000,"C=CC(=O)N1CCN(C2CN(c3cc(O)cc4ccccc34)Cc3nc(NCCC(=O)NCCOCCOCCOc4ccc(-n5c(O)nnc5-c5cc(C(C)C)c(O)cc5O)cc4)ncc32)CC1 (stereo not shown) [Compound 9, 3-((5-(4-acryloylpiperazin-1-yl)-7-(3-hydroxynaphthalen-1-yl)-5,6,7,8-tetrahydropyrido[3,4-d]pyrimidin-2-yl)amino)-N-(2-(2-(2-(4-(3-(2,4-dihydroxy-5-isopropylphenyl)-5-hydroxy-4H-1,2,4-triazol-4-yl)phenoxy)ethoxy)ethoxy)ethyl)propanamide, trifluoroacetic acid]"
< 100,> 1000,"C=CC(=O)N1CCN(c2nc(NCCC(=O)NCCOCCOCCOc3ccc(-n4c(O)nnc4-c4cc(C(C)C)c(O)cc4O)cc3)nc3c2CCN(c2cccc4ccccc24)C3)C[C@@H]1CC#N [Compound 92, (S)-3-((4-(4-acryloyl-3-(cyanomethyl)piperazin-1-yl)-7-(naphthalen-1-yl)-5,6,7,8-tetrahydropyrido[3,4-d]pyrimidin-2-yl)amino)-N-(2-(2-(2-(4-(3-(2,4-dihydroxy-5-isopropylphenyl)-5-hydroxy-4H-1,2,4-triazol-4-yl)phenoxy)ethoxy)ethoxy)ethyl)propanamide, trifluoroacetic acid]"
